# Experiments:
# Type in all cases: functional, Mesocricetus auratus
# Syrian golden hamster [1] = assay: Lowering of glycerol in dyslipidemic male syrian hamsters at 50 mg/kg, po
# Syrian golden hamster [2] = assay: Lowering of free fatty acids in dyslipidemic male syrian hamsters at 50 mg/kg, po
# Syrian golden hamster [3] = assay: Lowering of total cholesterol level in dyslipidemic male syrian hamsters at 50 mg/kg, po
# Syrian golden hamster [4] = assay: Increase in HDL-cholesterol in dyslipidemic male syrian hamsters at 50 mg/kg, po
# Syrian golden hamster [5] = assay: Increase in ratio between HDL-cholesterol and total cholesterol in dyslipidemic male syrian hamsters at 50 mg/kg, po
# Syrian golden hamster [6] = assay: Lowering of plasma triglyceride level in dyslipidemic male syrian hamsters at 50 mg/kg, po
smiles,measurement,setting,value
C[C@@H]([C@H](C)O)[C@H](N)C(=O)O,Activity,Syrian golden hamster [1],4.9%
same,Activity,Syrian golden hamster [2],14%
same,Activity,Syrian golden hamster [3],22%
same,Activity,Syrian golden hamster [4],8.7%
same,Ratio,Syrian golden hamster [5],39%
same,Activity,Syrian golden hamster [6],33%

# — ChEMBL document CHEMBL1147758, “4-hydroxyisoleucine an unusual amino acid as antidyslipidemic and antihyperglycemic agent” (2006)
